Source: patent publication US20230000808A1, “COMPOSITIONS AND METHODS EXCLUDING OR WITH REDUCED GLUTAMINE FOR THE TREATMENT OF HEMOGLOBINOPATHIES AND THALASSEMIAS” (AXCELLA HEALTH INC., priority 2019, published 2023)

Columns and labels:
VCAM-1 = VCAM-1 cell integrated intensity in HLMVEC treated with TNF-α (immunofluorescence); assay type: cell-based, human; conditions: for VCAM-1 expression in HLMVEC: 0.5 ng/mL TNF-α, amino acids at 20× HMDB, 24 hours
Summary of the method: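 Primary human lung microvascular endothelial cells, 24 h in medium with SCD-like amino acid profile plus 0.5 ng/mL TNF-α, with or without amino acids at 20× mean plasma level. Fixed, immunostained for ICAM-1 and VCAM-1; integrated intensity per cell by high-content imaging.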

[1] = system: RBCs of healthy whole blood; assay: RBC deformability (Elongation Index, LORRCA ektacytometry), ex vivo TBHP oxidation of healthy whole blood; assay type: cell-based, human; conditions: for EI over vehicle control, both ½ EImax and EImax: healthy donor 2, single amino acid treatments
Text: Whole blood from healthy African American and/or Hispanic donors was obtained from Research Blood Components, LLC based on the following donor selection criteria: Adult age (between 18 and 50 years), normal BMI (<30), and absence of other confounding clinical conditions. Whole blood from SCD donors were obtained from BioIVT based on the following donor selection criteria: Patients with genotypes HbSS, HbSC, HbS/β^0 and at least 1-2 months gap since last blood transfusion. Whole blood was shipped on ice on the same day as blood draw. Upon receipt, the blood sample was aliquoted and stored in the refrigerator until used for studies.
RBC deformability measurements were conducted with the Laser Optical Rotational Red Cell Analyzer (LORRCA) from RR Mechatronics in a temperature-controlled environment (37° C.). Briefly, an even layer of RBCs suspended in polyvinylpyrrolidone (PVP) is subjected to shear stress gradient (0.3 to 30 Pa) through two concentric cylinders and the resulting changes in RBC shape or deformability are measured by a laser beam diffraction pattern. The captured images of RBC shape in response to increasing shear stress are then analyzed by the LORRCA program to calculate Elongation Index (EI).
Healthy RBCs have higher deformability ≥0.5 EI and SCD RBCs have lower deformability or EI values as studied by LORRCA ektacytometry in the field. […] The induced hemolysis model in this disclosure involves use of tert-butyl hydroperoxide (TBHP) to lower EI of RBCs.
The ex vivo hemolysis study disclosed here involves overnight treatment of whole blood with vehicle as a control and specific amino acids followed by rapid oxidation (5 min) with TBHP. Method for oxidation of whole blood with tert-butyl hydroperoxide has been used in prior literature (Diederich L, et al, Front Physiol. 2018 May 11; 9:332). RBC deformability or shape changes are then measured with LORRCA ektacytometry.
Whole blood aliquots stored in the fridge were brought up to room temperature while gently shaking on a rocker at low speed for an hour to ensure gradual and uniform suspension of red blood cells prior to deformability measurements. Vehicle control used in the study was 1× Dulbecco's […]) and amino acids disclosed herein were added (at either final 10× or 2.5 mM concentration as indicated) to corresponding vehicle and amino acid treatment conditions. The samples were then incubated overnight at 37° C. The next day, 25 μl of whole blood was taken from each treatment condition and added to 5 mL Elon ISO viscous solution from RR Mechatronics. The sample was inverted 15-20 times to ensure proper mixing of the treated RBCs with the Elon ISO solution followed by loading the sample on LORRCA and capturing RBC deformability or shape measurements over the applied shear gradient. The remaining whole blood treatments were returned to incubator (37° C.) until deformability measurements were completed for all treatments. To the remaining whole blood treatment samples, TBHP solution (5.0-6.0 M in Decane, Sigma) was added at 2.5 mM final concentration from a 100 mM freshly prepared stock and incubated for further 5 min at 37° C. 25 μl of this TBHP-treated sample was immediately removed at the end of the 5 min incubation and added to the Elon ISO solution for RBC deformability measurement after oxidation. Included in the Tables 13-15 are EI measurements at ½ EImax shear stress 1.69 Pa and EImax shear stress 30 Pa from these studies and FIG. 1 captures EI measurements for all shear stress points for the indicated treatment conditions.

Compound: NC(=O)CC[C@H](N)C(=O)O [Glutamine, L-glutamine]
- VCAM-1 expression in HLMVEC (VCAM-1): increased
- effectiveness among all treatment groups, EI and fold change relative to vehicle ([1]; healthy donor 2): least effective
- EI over vehicle control, both ½ EImax and EImax [1]: higher than the vehicle

Compound: CC(=O)N[C@@H](CS)C(=O)O [N-Acetyl Cysteine, N-acetylcysteine]
- VCAM-1 expression in HLMVEC (VCAM-1): greatly reduced
- VCAM-1 Cell Integrated Intensity Median (VCAM-1; HLMVEC + 0.5 ng/mL TNF-α, 24 h, amino acids 20x HMDB, Nac/Cit/Car 5 mM as bracketed): −0.315
- EI over vehicle control, both ½ EImax and EImax [1]: higher than the vehicle
